Experimental data reported in ChEMBL document CHEMBL1122947, “Fluorine-containing amino acids and their derivatives. 4. Synthesis and antibacterial activity of threo and erythro 1-fluorodehydroxylated chloramphenicol analogues” (1985).
Values after ≈ are worked out from the molar mass of the structure shown.

How the values were obtained:
Klebsiella pneumoniae = assay: In vitro antibacterial activity against Klebsiella pneumoniae; assay type: functional
Streptococcus pyogenes = assay: In vitro antibacterial activity against Streptococcus pyogenes; assay type: functional
Trichophyton benhamiae = assay: In vitro antifungal activity against Trichophyton asteroides; assay type: functional
Aspergillus fumigatus = assay: In vitro antifungal activity against Aspergillus fumigatus; assay type: functional
Trichophyton asteroides = assay: In vitro antifungal activity against Trichophyton asteroides
Pseudomonas aeruginosa = assay: In vitro antibacterial activity against Pseudomonas aeruginosa; assay type: functional
Staphylococcus aureus = assay: In vitro antibacterial activity against Staphylococcus aureus; assay type: functional
Escherichia coli = assay: In vitro antibacterial activity against Escherichia coli; assay type: functional
[1] = Klebsiella pneumoniae, read-out: MIC

SMILES	MIC (Klebsiella pneumoniae) [µg/mL]	MIC (Streptococcus pyogenes) [µg/mL]	MIC (Klebsiella pneumoniae; [1]) [µg/mL]	MIC (Trichophyton benhamiae) [µg/mL]	MIC (Aspergillus fumigatus) [µg/mL]	MIC (Trichophyton asteroides) [µg/mL]	MIC (Pseudomonas aeruginosa) [µg/mL]	MIC (Staphylococcus aureus) [µg/mL]	MIC (Escherichia coli) [µg/mL]
O=C(NC(CO)C(F)c1ccc([N+](=O)[O-])cc1)C(Cl)Cl (stereo in doubt; 3)	>100								
O=C(NC(CO)C(F)c1cccc([N+](=O)[O-])c1)C(Cl)Cl (stereo not drawn)		> 100	> 100	> 100	> 100	> 100	> 100	> 100	> 100
O=C(NC(CO)C(F)c1ccccc1[N+](=O)[O-])C(Cl)Cl (stereo not drawn)		> 100	> 100	> 100	> 100	> 100	> 100	> 100	> 100
O=C(NC(CO)C(F)c1ccc([N+](=O)[O-])cc1)C(Cl)Cl (stereo in doubt; 11)		> 100	50 (≈ 154 µM)	> 100	> 100	> 100	> 100	> 100	> 100
O=C(NC(CO)C(F)c1ccccc1)C(Cl)Cl (stereo not drawn)		> 100	> 100	> 100	> 100	> 100	> 100	> 100	> 100
